Assay results as given in patent US11304929B2, “Tosylacetate based compounds and derivatives thereof as PHGDH inhibitors” (priority 2017, dated 2022).
Read-outs that look alike come from different tables or passages of the source.

Target: PHGDH (Homo sapiens (Human), UniProt O43175)
Experiment: 3-Phosphoglycerate Dehydrogenase (PHGDH) Fluorescence Intensity Assay, run at two NAD/3-PG ratios: PHGDH_HIGH_NAD/3-PG (250 μM NAD/500 μM 3-PG) and PHGDH_500_NAD/3-PG (500 μM NAD/500 μM 3-PG)
Assay type: biochemical
[1] = 250 μM NAD/500 μM 3-PG, read-out: IC50 (PHGDH_HIGH_NAD/3-PG)
[2] = 500 μM NAD/500 μM 3-PG, read-out: IC50 (PHGDH_500_NAD/3-PG)

Sequence of PHGDH (O43175 2-533 limits assumed): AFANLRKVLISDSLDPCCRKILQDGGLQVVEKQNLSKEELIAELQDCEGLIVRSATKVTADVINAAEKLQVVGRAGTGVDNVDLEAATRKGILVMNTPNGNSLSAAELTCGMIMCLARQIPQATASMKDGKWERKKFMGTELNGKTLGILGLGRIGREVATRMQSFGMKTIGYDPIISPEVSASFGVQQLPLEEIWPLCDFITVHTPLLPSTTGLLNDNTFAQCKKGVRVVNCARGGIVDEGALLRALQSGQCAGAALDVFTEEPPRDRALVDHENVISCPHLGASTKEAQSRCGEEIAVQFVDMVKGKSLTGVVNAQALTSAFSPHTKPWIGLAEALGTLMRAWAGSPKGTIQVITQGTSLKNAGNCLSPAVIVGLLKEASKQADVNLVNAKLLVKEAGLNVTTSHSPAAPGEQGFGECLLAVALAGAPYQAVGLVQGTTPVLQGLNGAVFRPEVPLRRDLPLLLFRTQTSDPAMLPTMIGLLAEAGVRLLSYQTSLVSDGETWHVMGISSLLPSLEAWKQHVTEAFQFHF
Description: This assay is used to identify compounds which inhibit the enzymatic activity of PHGDH which catalyzes the reaction of 3-Phosphoglycerate (3-PG) and NAD to 3-Phosphohydroxypyruvate and NADH.
The produced NADH is used in a coupled reaction for Diaphorase mediated reduction of Resazurin to Resorufin which can be measured in a Fluorescence Intensity readout.
The full length version of PHGDH enzyme was expressed in E. coli with an N-terminal HIS-tag and a TEV cleavage site.
The 3-Phosphoglycerate substrate was purchased from Sigma. NAD, Diaphorase and Resazurin were purchased from Sigma Aldrich.
Compounds are dispensed onto assay plates (black, low volume, flat bottom 384 well, Corning) using an Access Labcyte Workstation with the Labcyte Echo 55× from a DMSO solution. For the chosen highest assay concentration of 100 μM, 150 nl of compound solution are transferred from a 10 mM DMSO compound stock solution. A series of 11 concentrations (10 1:5 steps) is transferred for each compound.
The assay has been performed at two different NAD/3-PG ratios (final assay concentrations):
Plates are kept at room temperature. After 240 minutes incubation time the fluorescence signal is measured in a PerkinElmer Envision HTS Multilabel Reader with an excitation wavelength at 530-560 nm and an emission wavelength at 590 nm.
Each plate contains negative controls (diluted DMSO instead of test compound; reaction as described with PHGDH protein) and positive controls (diluted DMSO instead of test compound; reaction as described with buffer instead of PHGDH protein). Negative and positive control values are used for normalization.
IC50 values are calculated and analyzed in the MEGALAB IC50 application using a 4 parametric logistic model.

Cc1cc(Cl)c2cc(C(=O)N[C@H](CO)c3ccc(S(=O)(=O)CC(=O)OCC4COC4)cc3)n(C)c2c1 [Example 09-035, oxetan-3-ylmethyl 2-{4-[(1S)-1-[(4-chloro-1,6-dimethyl-1H-indol-2-yl)formamido]-2-hydroxyethyl]benzenesulfonyl}acetate]
IC50 [1]: 54 nM

CCC(C(=O)O)S(=O)(=O)c1ccc([C@@H](C)NC(=O)c2cc3c(Cl)cc(C)cc3n2C)cc1 (stereo partly drawn) [Example 07-011, 2-{4-[(1R)-1-[(4-chloro-1,6-dimethyl-1H-indol-2-yl)formamido]ethyl]benzenesulfonyl}butanoic acid]
IC50 [1]: 11 nM

Cc1cc2c(cc(C(=O)N[C@H](C)c3ccc(S(=O)(=O)C(C)(C)C(=O)O)cc3)n2C)c(Cl)c1Cl [Example 07-015, 2-{4-[(1R)-1-[(4,5-dichloro-1,6-dimethyl-1H-indol-2-yl)formamido]ethyl]benzenesulfonyl}-2-methylpropanoic acid]
IC50 [1]: 5 nM | IC50 [2]: 9 nM

CC(=O)N1CCC(C(=O)O)(S(=O)(=O)c2ccc([C@@H](C)NC(=O)c3cc4c(Cl)c(Cl)c(C)cc4n3C)cc2)CC1 [Example 07-016, 1-acetyl-4-{4-[(1R)-1-[(4,5-dichloro-1,6-dimethyl-1H-indol-2-yl)formamido]ethyl]benzenesulfonyl}piperidine-4-carboxylic acid]
IC50 [2]: 21 nM

Cc1cc(Cl)c2cc(C(=O)N[C@H](CO)c3ccc([S+]([O-])CC(=O)OC(C)C)cc3)n(C)c2c1 (stereo partly drawn) [Example 13-008, propan-2-yl 2-{4-[(1S)-1-[(4-chloro-1,6-dimethyl-1H-indol-2-yl)formamido]-2-hydroxyethyl]benzenesulfinyl}acetate]
IC50 [1]: 695 nM | IC50 [2]: 1200 nM

Cc1cc2c(cc(C(=O)N[C@H](C)c3ccc([S+]([O-])CC(=O)O)cc3)n2C)c(Cl)c1Cl (stereo partly drawn) [Example 12-008, 2-{4-[(1R)-1-[(4,5-dichloro-1,6-dimethyl-1H-indol-2-yl)formamido]ethyl]benzenesulfinyl}acetic acid]
IC50 [2]: 8 nM

C[C@@H](NC(=O)c1cc(-c2ccccc2)nn1C)c1ccc(S(=O)(=O)CC(=O)O)cc1 [Example 04-001, 2-{4-[(1R)-1-[(1-methyl-3-phenyl-1H-pyrazol-5-yl)formamido]ethyl]benzenesulfonyl}acetic acid]
IC50 [1]: 145 nM

Cc1cc2c(cc(C(=O)N[C@H](CO)c3ccc([S+]([O-])CC(=O)OC(C)C)cc3)n2C)c(F)c1F (stereo partly drawn) [Example 13-010, propan-2-yl 2-{4-[(1S)-1-[(4,5-difluoro-1,6-dimethyl-1H-indol-2-yl)formamido]-2-hydroxyethyl]benzenesulfinyl}acetate]
IC50 [2]: 1060 nM

Cc1cc(Cl)c2cc(C(=O)N[C@H](C)c3ccc([S+]([O-])CC(=O)OC(C)C)cc3)n(C)c2c1 (stereo partly drawn) [Example 13-007, propan-2-yl 2-{4-[(1R)-1-[(4-chloro-1,6-dimethyl-1H-indol-2-yl)formamido]ethyl]benzenesulfinyl}acetate]
IC50 [1]: 2140 nM

CC(=O)OCC(CO)COC(=O)CS(=O)(=O)c1ccc([C@@H](C)NC(=O)c2cc3c(Cl)cc(C)cc3n2C)cc1 (stereo partly drawn) [Example 09-024, 2-[(acetyloxy)methyl]-3-hydroxypropyl 2-{4-[(1R)-1-[(4-chloro-1,6-dimethyl-1H-indol-2-yl)formamido]ethyl]benzenesulfonyl}acetate]
IC50 [1]: 247 nM

CC(C)OC(=O)CS(=O)(=O)c1ccc([C@@H](C)NC(=O)c2cc(-c3ccc(F)c(F)c3)nn2C)cc1 [Example 02-016, propan-2-yl 2-{4-[(1R)-1-{[3-(3,4-difluorophenyl)-1-methyl-1H-pyrazol-5-yl]formamido}ethyl]benzenesulfonyl}acetate]
IC50 [1]: > 20000 nM

C[C@@H](NC(=O)c1cc(-c2ccc(F)cc2)nn1C)c1ccc(S(=O)(=O)CC(=O)OCCO)cc1 [Example 10-005, 2-hydroxyethyl 2-{4-[(1R)-1-{[3-(4-fluorophenyl)-1-methyl-1H-pyrazol-5-yl]formamido}ethyl]benzenesulfonyl}acetate]
IC50 [1]: 766 nM

COC(=O)C(C)(C)S(=O)(=O)c1ccc([C@@H](C)NC(=O)c2cc3c(Cl)cc(C)cc3n2C)cc1 [Example 05-007, methyl 2-{4-[(1R)-1-[(4-chloro-1,6-dimethyl-1H-indol-2-yl)formamido]ethyl]benzenesulfonyl}-2-methylpropanoate]
IC50 [1]: 4520 nM

Cc1cc2c(cc(C(=O)N[C@H](CO)c3ccc([S@+]([O-])CC(=O)O)cc3)n2C)c(Cl)c1Cl [Example 12-002, 2-[(R)-4-[(1S)-1-[(4,5-dichloro-1,6-dimethyl-1H-indol-2-yl)formamido]-2-hydroxyethyl]benzenesulfinyl]acetic acid]
IC50 [1]: 3 nM | IC50 [2]: 4 nM

Cc1cc2c(cc(C(=O)N[C@H](CO)c3ccc(S(=O)(=O)CC(=O)OCCO)cc3)n2C)c(Cl)c1Cl [Example 09-036, 2-hydroxyethyl 2-{4-[(1S)-1-[(4,5-dichloro-1,6-dimethyl-1H-indol-2-yl)formamido]-2-hydroxyethyl]benzenesulfonyl}acetate]
IC50 [2]: 107 nM

CC(C)OC(=O)CS(=O)(=O)c1ccc([C@@H](CO)NC(=O)c2cc3c(Cl)cc(N4CCN(C)CC4)cc3n2C)cc1 [Example 01-040, propan-2-yl 2-{4-[(1S)-1-{[4-chloro-1-methyl-6-(4-methylpiperazin-1-yI)-1H-indol-2-yl]formamido}-2-hydroxyethyl]benzenesulfonyl}acetate]
IC50 [1]: 981 nM

Cc1cc2c(cc(C(=O)N[C@H](CO)c3ccc(S(=O)(=O)CC(=O)OCC(C)(C)O)cc3)n2C)c(F)c1F [Example 09-043, 2-hydroxy-2-methylpropyl 2-{4-[(1S)-1-[(4,5-difluoro-1,6-dimethyl-1H-indol-2-yl)formamido]-2-hydroxyethyl]benzenesulfonyl}acetate]
IC50 [2]: 246 nM

C[C@@H](NC(=O)c1cc(-c2ccc(F)cc2)nn1C)c1ccc(S(=O)(=O)C(C)(C)C(=O)O)cc1 [Example 08-001, 2-{4-[(1R)-1-{[3-(4-fluorophenyl)-1-methyl-1H-pyrazol-5-yl]formamido}ethyl]benzenesulfonyl}-2-methylpropanoic acid]
IC50 [1]: 161 nM

Cc1cc(Cl)c2cc(C(=O)N[C@H](C)c3ccc(S(=O)(=O)CC(=O)OC(C)(C)C)cc3)n(C)c2c1 [Example 01-014, tert-butyl 2-{4-[(1R)-1-[(4-chloro-1,6-dimethyl-1H-indol-2-yl)formamido]ethyl]benzenesulfonyl}acetate]
IC50 [1]: 4250 nM

Cc1cc2c(cc(C(=O)N[C@H](C)c3ccc(S(=O)(=O)CC(=O)O[13CH3])cc3)n2C)c(Cl)c1Cl [Example 01-022, (^13C)methyl 2-{4-[(1R)-1-[(4,5-dichloro-1,6-dimethyl-1H-indol-2-yl)formamido]ethyl]benzenesulfonyl}acetate]
IC50 [1]: 414 nM

COC(=O)C[S@@+]([O-])c1ccc([C@@H](CO)NC(=O)c2cc3c(Cl)c(Cl)c(C)cc3n2C)cc1 [Example 11-002, methyl 2-[(R)-4-[(1S)-1-[(4,5-dichloro-1,6-dimethyl-1H-indol-2-yl)formamido]-2-hydroxyethyl]benzenesulfinyl]acetate]
IC50 [1]: 189 nM | IC50 [2]: 291 nM

Cc1cc(-c2cc(C(=O)N[C@H](C)c3ccc(S(=O)(=O)CC(=O)OC(C)C)cc3)n(C)n2)ccc1F [Example 02-015, propan-2-yl 2-{4-[(1R)-1-{[3-(4-fluoro-3-methylphenyl)-1-methyl-1H-pyrazol-5-yl]formamido}ethyl]benzenesulfonyl}acetate]
IC50 [1]: 5490 nM

Cc1cc2c(cc(C(=O)N[C@H](CO)c3ccc([S@+]([O-])CC(=O)OC(C)C)cc3)n2C)c(Cl)c1Cl [Example 13-001, propan-2-yl 2-[(R)-4-[(1S)-1-[(4,5-dichloro-1,6-dimethyl-1H-indol-2-yl)formamido]-2-hydroxyethyl]benzenesulfinyl]acetate]
IC50 [1]: 204 nM | IC50 [2]: 305 nM

C[C@@H](NC(=O)c1cc2c(Cl)cc(N3CCN(C)CC3)cc2n1C)c1ccc(S(=O)(=O)CC(=O)O)cc1 [Example 03-018, 2-{4-[(1R)-1-{[4-chloro-1-methyl-6-(4-methylpiperazin-1-yl)-1H-indol-2-yl]formamido}ethyl]benzenesulfonyl}acetic acid]
IC50 [1]: 84 nM | IC50 [2]: 292 nM

Cc1cc2c(cc(C(=O)N[C@H](CO)c3ccc([S@@+]([O-])CC(=O)OC4CCOCC4)cc3)n2C)c(Cl)c1Cl [Example 13-003, oxan-4-yl 2-[(S)-4-[(1S)-1-[(4,5-dichloro-1,6-dimethyl-1H-indol-2-yl)formamido]-2-hydroxyethyl]benzenesulfinyl]acetate]
IC50 [2]: 211 nM

C[C@@H](NC(=O)c1cc(-c2ccc(F)cc2)nn1C)c1ccc(S(=O)(=O)CC(=O)OCC2COC2)cc1 [Example 10-007, oxetan-3-ylmethyl 2-{4-[(1R)-1-{[3-(4-fluorophenyl)-1-methyl-1H-pyrazol-5-yl]formamido}ethyl]benzenesulfonyl}acetate]
IC50 [1]: 714 nM

CC(C)OC(=O)CS(=O)(=O)c1ccc([C@@H](C)NC(=O)c2cc3c(Cl)cc(N4CCN(C)CC4)cc3n2C)cc1 [Example 01-041, propan-2-yl 2-{4-[(1R)-1-{[4-chloro-1-methyl-6-(4-methylpiperazin-1-yl)-1H-indol-2-yl]formamido}ethyl]benzenesulfonyl}acetate]
IC50 [1]: 3140 nM

COC(=O)C[S+]([O-])c1ccc([C@@H](C)NC(=O)c2cc3c(Cl)c(Cl)c(C)cc3n2C)cc1 (stereo partly drawn) [Example 11-001, methyl 2-{4-[(1R)-1-[(4,5-dichloro-1,6-dimethyl-1H-indol-2-yl)formamido]ethyl]benzenesulfinyl}acetate]
IC50 [1]: 296 nM | IC50 [2]: 436 nM

Cc1cc(Cl)c2cc(C(=O)N[C@H](C)c3ccc(S(=O)(=O)CC(=O)OCCOC(=O)C(C)(C)C)cc3)n(C)c2c1 [Example 09-023, 2-[(2-{4-[(1R)-1-[(4-chloro-1,6-dimethyl-1H-indol-2-yl)formamido]ethyl]benzenesulfonyl}acetyl)oxy]ethyl 2,2-dimethylpropanoate]
IC50 [1]: 1800 nM

CC(C)OC(=O)C(C)(C)S(=O)(=O)c1ccc([C@@H](CO)NC(=O)c2cc(-c3ccc(F)cc3)nn2C)cc1 [Example 06-006, propan-2-yl 2-{4-[(1S)-1-{[3-(4-fluorophenyl)-1-methyl-1H-pyrazol-5-yl]formamido}-2-hydroxyethyl]benzenesulfonyl}-2-methylpropanoate]
IC50 [1]: 14500 nM
